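Cultured in 96-well plates, cells were exposed to test compound for 48 hours across five concentrations. Abbreviation: GI50, concentration required for 50% inhibition of growth. TGI is the concentration that stops growth completely.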
Legend:
Experiment in all cases: NCI tumour cell line growth inhibition, 48 h
DLD-1 colon = system: DLD-1 colon
DMS 114 small cell lung = system: DMS 114 small cell lung
DMS 273 small cell lung = system: DMS 273 small cell lung
HOP-18 NSCLC = system: HOP-18 NSCLC
RXF-631 renal = system: RXF-631 renal
LXFL 529 NSCLC = system: LXFL 529 NSCLC
M19-MEL melanoma = system: M19-MEL melanoma
XF 498 CNS = system: XF 498 CNS
MDA-N = system: MDA-N
SN12K1 renal = system: SN12K1 renal
P388 leukemia = system: P388 leukemia
P388/ADR leukemia = system: P388/ADR leukemia

Row | SMILES | TGI (DLD-1 colon) [µM] | TGI (DMS 114 small cell lung) [µM] | TGI (DMS 273 small cell lung) [µM] | TGI (HOP-18 NSCLC) [µM] | TGI (RXF-631 renal) [µM] | TGI (LXFL 529 NSCLC) [µM] | TGI (M19-MEL melanoma) [µM] | TGI (XF 498 CNS) [µM] | TGI (MDA-N) [µM] | other results
1 | N=CCCN(CCC=N)c1ccc(/C=C2\CN(NC(=O)c3ccc(Cl)cc3)C(c3ccccc3)=N2)cc1 | > 100 | > 100 | > 100 | > 100 | > 100 | > 100 |  |  |  | 
2 | C[C@@H](C1CCC2C3C(=CC(=O)[C@@]21C)[C@H](C)[C@]1(CCC(=O)O1)C1OC31)[C@H]1C[C@]2(C)O[C@@](C)(O1)OC2(C)C (some centres not stated) | > 100 | > 100 | > 100 | > 100 | > 100 | > 100 | > 100 | > 100 |  | 
3 | N=Nc1c(OC(=O)Nc2ccccc2)[nH]c2ccccc12 |  |  |  |  |  |  |  |  | 61.8 | 
4 | N#CNC(N)=NCCO | > 100 | > 100 | > 100 | > 100 | > 100 | > 100 | > 100 | > 100 |  | 
5 | NC1=NC(c2ccc(Cl)cc2)N(c2ccc(S(=O)(=O)Nc3ncccn3)cc2)C(N)=N1 (configuration not stated) |  |  |  |  |  |  |  |  | > 100 | 
6 | O=C(c1ccccc1)C(c1ccccc1)C1(O)C(=O)Nc2ccccc21 (configuration not stated) | > 100 | > 100 | > 100 |  | > 100 | > 100 | > 100 | > 100 |  | 
7 | C/C=C(\C)c1cc(=O)c2c(C)cc3c(c2o1)C(=O)c1c(O)c(C2CC(C)(N(C)C)C(O)C(C)O2)cc(C2CC(N(C)C)C(O)C(C)O2)c1C3=O (configuration not stated) | > 35.2 | 4.45 | 11.4 | > 100 |  |  | 16.1 |  | 0.46 | TGI (SN12K1 renal): 2.52 µM; TGI (P388 leukemia): 5.36 µM; TGI (P388/ADR leukemia): 67.9 µM
8 | Cc1ccc(NC(=O)CC/C(CC(=O)C(C)(C)C)=N/NC(=O)C(N)=O)cc1C | > 100 | > 100 | > 100 | > 100 | > 100 | > 100 | > 100 | > 100 |  | 
9 | COc1ccc(C(C#N)NC23CC4CC(CC(C4)C2)C3)cc1OC (configuration not stated) |  |  |  |  |  |  |  |  | > 100 | 
10 | COc1cc([N+](=O)[O-])c(S(=O)(=O)O)cc1NS(=O)(=O)c1ccc(C)cc1 |  |  |  |  |  |  |  |  | > 100 | 
11 | COc1cc2ccccc2c2cc([N+](=O)[O-])oc12 |  |  |  |  |  |  |  |  | 0.849 | 
12 | CC(N=C(N)N)C(=O)O (configuration not stated) |  |  |  |  |  |  |  |  | > 100 | 
13 | Cc1c(C(=O)CC(=O)C(=O)Nc2c(C(C)C)cccc2C(C)C)[n+](=O)c2ccccc2n1[O-] |  | 6.41 | 12.1 |  | 14.4 | 23.4 | 4.87 | 15 |  | 
14 | Clc1ccccc1C(n1ncc2ccccc21)n1ncc2ccccc21 | > 100 | > 100 | > 100 |  |  | > 100 | > 100 | > 100 |  | 
15 | O=C1c2cccc3cc([N+](=O)[O-])cc(c23)C(=O)N1NC1=NCCN1 | > 100 | > 100 | > 100 | > 100 | > 100 | > 100 | > 100 | > 100 |  | 
16 | O=C(CCN1CCOCC1)Nc1ccc(F)cc1F |  |  |  |  |  |  |  |  | > 100 | 
17 | Cc1nc2ccccc2c(=O)n1/N=C(\N=Nc1cc(Cl)ccc1Cl)c1cccc(-c2ccco2)c1 | > 100 | > 100 | > 100 | > 100 | > 100 |  | > 100 |  |  | 
18 | COC1C(O)C(C)OC(OC2C(Oc3cccc4c(O)c5c(=O)oc6ccc(C)c7c(=O)oc(c34)c5c67)OC(C)C3O[C@H](c4ccccc4)OC32)C1O (some centres not stated) | 8.67 | 2.69 | 1.59 | 13.6 | 2.37 | 3.18 | 3.56 | 2.21 | 10.4 | GI50 (MDA-N): 0.327 µM
19 | CC(=O)Nc1ccc(-c2c3nc(c(-c4cc5ccccc5[n+](C)c4)c4ccc([nH]4)c(-c4ccc(NC(C)=O)cc4)c4nc(c(-c5cc6ccccc6[n+](C)c5)c5ccc2[nH]5)C=C4)C=C3)cc1 |  |  |  |  |  |  |  |  | 36.7 | GI50 (MDA-N): 11.2 µM
20 | CC(C)(C)N/N=C(\Cc1occc(=O)c1O)C(=O)Nc1ccc([N+](=O)[O-])cc1[N+](=O)[O-] |  | > 100 | > 100 | > 100 | > 100 | > 100 | > 100 | > 100 |  | 
21 | COc1cc(=O)oc(/C=C/C=O)c1C | 34.3 | 26.3 | 32.8 | 37.5 | 27.9 | 32.4 | 35.7 | 32.4 |  | 
22 | CCNC(C)(C)C(SS)c1ccc(Br)cc1 (configuration not stated) |  |  |  |  |  |  |  |  | > 100 | 
23 | O=C1c2ccccc2C(=O)C2C1C1C(=O)c3ccccc3C(=O)C21 (configuration not stated) | > 100 | > 100 | > 100 | > 100 | > 100 | > 100 | > 100 |  |  | 

Row | SMILES | TGI (DLD-1 colon) [µM] | TGI (DMS 114 small cell lung) [µM] | TGI (DMS 273 small cell lung) [µM] | TGI (HOP-18 NSCLC) [µM] | TGI (RXF-631 renal) [µM] | TGI (LXFL 529 NSCLC) [µM] | TGI (M19-MEL melanoma) [µM] | TGI (XF 498 CNS) [µM] | TGI (MDA-N) [µM] | other results
24 | NC(N)=NS(=O)(=O)c1ccc(Nc2c3ccccc3nc3c(C(=O)N4CCN(CCO)CC4)cccc23)cc1 | > 100 | > 100 | > 100 | > 100 |  | > 100 | > 100 | > 100 |  | 
25 | COC(=O)[C@H]1[C@H]2C[C@@H]3c4[nH]c5cc(OC)ccc5c4CCN3C[C@H]2C[C@@H](OC(=O)c2cc(OC)c(OC)c(OC)c2)[C@@H]1OC | > 100 | 40.4 | 51.8 |  |  | 35.7 | 50 |  |  | 
26 | O=C(CC(=O)c1ccc([N+](=O)[O-])cc1)C(=O)Nc1nccs1 | > 100 | > 100 | > 100 | > 100 | > 100 | > 100 |  | > 100 |  | 
27 | CC(C)N(C(=O)C12C3C4C5C3C1(C(=O)N(C(C)C)C(C)C)C5(C#N)C42)C(C)C (configuration not stated) | 66.5 | > 100 | > 100 | > 100 | > 100 | > 100 | > 100 | > 100 |  | 
28 | [N-]=[N+]=Nc1ccc(CCN2CCN(c3cccc(C(F)(F)F)c3)CC2)cc1I |  |  | > 100 |  |  | > 100 | > 100 |  |  | 
29 | CCCN(CCCN)/[N+]([O-])=N\O | > 100 | > 100 | > 100 | > 100 | > 100 | > 100 | > 100 |  |  | 
30 | CN1C(OCc2ccccc2)c2c(ccc3c2OCO3)C2C=Cc3cc4c(cc3C21)OCO4 (configuration not stated) | 1.65 | 0.854 |  | 2.61 | 2.09 | 1.37 | 0.361 |  |  | 
31 | N#CCCN(CCC#N)C(=O)c1cccc(C(=O)N(CCC#N)CCC#N)c1 | > 100 | > 100 | > 100 |  |  | 19.2 | > 100 | > 100 |  | 
32 | Cc1cc(=O)oc2c(CN3CCCCC3)c(O)ccc12 |  |  |  |  |  |  |  |  | > 100 | 
33 | CCC1=C(C)/C(=C/c2[nH]c(C(Br)Br)c(CC)c2C)N=C1C(Br)Br | > 100 | 88.6 |  | > 100 |  | > 100 | 79.1 |  |  | 
34 | CC1(C)OC(=O)[C@@](C)([C@H](O)c2ccccc2)O1 | > 100 | > 100 | > 100 |  | > 100 | > 100 | > 100 | > 100 |  | 
35 | [C-]#[O+].[Cl][Sn]([Cl])[Cl].[Cl][Sn]([Cl])[Cl].[Pt].c1ccc([PH+](c2ccccc2)c2ccccc2)cc1.c1ccc([PH+](c2ccccc2)c2ccccc2)cc1 | > 100 | 51.2 | > 100 | 90 |  | 82.1 | > 100 |  |  | GI50 (M19-MEL melanoma): 41 µM; GI50 (DLD-1 colon): 45.5 µM; GI50 (DMS 114 small cell lung): 21.8 µM; GI50 (DMS 273 small cell lung): 46.1 µM; GI50 (HOP-18 NSCLC): 25.3 µM; GI50 (LXFL 529 NSCLC): 23.2 µM
36 | O=C(O)C1CCc2nnc(-c3ccccc3)n21 (configuration not stated) | > 100 | > 100 | > 100 | > 100 | > 100 | > 100 | > 100 |  |  | 
37 | COc1c(C2=NC(C(C)C)CO2)ccc2ccccc12 (configuration not stated) | > 100 |  | > 100 |  | > 100 | > 100 | > 100 | > 100 |  | 
38 | CCOC(=O)c1cc(/C=C/C(C)=C/C(=O)OC)oc1-c1ccccc1 | > 100 | > 100 | > 100 | > 100 |  |  | > 100 | > 100 |  | 
39 | CN(C)c1ccc2c(c1)CN1C(=O)c3ccccc3C1=N2 | > 100 | > 100 | > 100 | > 100 |  | > 100 |  | > 100 |  | GI50 (XF 498 CNS): > 100 µM; GI50 (DLD-1 colon): > 100 µM; GI50 (DMS 114 small cell lung): > 100 µM; GI50 (DMS 273 small cell lung): > 100 µM; GI50 (HOP-18 NSCLC): 6.02 µM; GI50 (LXFL 529 NSCLC): > 100 µM
40 | NC(C/[N+]([O-])=N/O)C(=O)O (configuration not stated) | > 500 | 10.9 | 50.4 | > 472 |  |  | > 373 | 40.1 | > 500 | TGI (SN12K1 renal): 257 µM; TGI (P388 leukemia): 337 µM; TGI (P388/ADR leukemia): 336 µM
41 | Nc1ncnc2c1ncn2C1OC(CSC(F)(F)F)C(O)C1O (configuration not stated) | > 100 | > 100 | > 100 | > 100 |  | > 100 | > 100 |  |  | 
42 | CC1(C)C(c2ccccc2)C12CCC1(C2=O)C(c2ccccc2)C1(C)C (configuration not stated) |  | 34.9 | 45.3 |  |  | > 100 | 58.9 | 36.1 |  | 
43 | O=S1CSCS1 (configuration not stated) | > 100 | > 100 | > 100 | > 100 | > 100 | > 100 | > 100 | > 100 |  | 
44 | Cc1cc(=O)n(-c2ccccc2)c(=O)o1 | > 100 | > 100 | > 100 | > 100 |  | > 100 | > 100 |  |  | 
45 | CC1(C)CCC[C@@]2(C)C1C[C@H](O)[C@@]1(C)O[C@@](C)([C@H](O)CO)CCC21 (some centres not stated) |  | 90.2 | > 100 | > 100 | > 100 | > 100 | > 100 | > 100 |  | 
46 | COC(=O)CCC(C)[C@H]1CCC2C3C(C[C@H](OC(C)=O)[C@@]21C)[C@@]1(C)CCC2(C[C@H]1C[C@H]3OC(C)=O)OOC1(CCC(C)CC1)OO2 (some centres not stated) |  |  |  |  |  |  |  |  | > 100 | 

— PubChem BioAssay (NCI)
